Experimental data: ChEMBL document CHEMBL5608181, “Discovery of indazole inhibitors for heat shock protein 90 as anti-cancer agents” (Eur J Med Chem, 2024)
Active and inactive are the calls of the source. No cut-off for these calls is given here.

How the values were obtained:
BT-474 [1] = test: Antiproliferative activity against human BT-474 cells assessed as inhibition of cell viability at 10 uM measured after 72 hrs by CellTiter 96 Aqueous One Solution Cell Proliferation Assay relative to control; format: functional
JIMT-1 = test: Antiproliferative activity against human JIMT-1 cells assessed as inhibition of cell viability at 10 uM measured after 72 hrs by CellTiter 96 Aqueous One Solution Cell Proliferation Assay relative to control; format: functional
HEK293 = test: Cytotoxicity against HEK293 cells assessed as reduction in cell viability at 10 uM measured after 72 hrs by CellTiter 96 Aqueous One Solution Cell Proliferation Assay; format: toxicity, cell-based; details: human, hek293, 72 h
[2] = AUClast in Sprague-Dawley rat at 5 mg/kg, iv; format: ADME, organism-based; details: in vivo
[3] = AUCinfinity in Sprague-Dawley rat at 5 mg/kg, iv; format: ADME, organism-based; details: in vivo
[4] = Antiproliferative activity against human Trastuzumab-sensitive BT474 cell assessed as inhibition of cell viability measured after 72 hrs by CellTiter 96 Aqueous One Solution Cell Proliferation Assay; format: functional, cell-based; details: BT-474, 72 h
[5] = test system: Trastuzumab-resistant JIMT-1; test: Antiproliferative activity against human Trastuzumab-resistant JIMT-1 cell assessed as inhibition of cell viability measured after 72 hrs by CellTiter 96 Aqueous One Solution Cell Proliferation Assay; format: functional, cell-based; details: Trastuzumab-resistant JIMT-1, 72 h
BT-474 [6] = test: Downregulation of HER2 expression in human Trastuzumab-sensitive BT474 cell at 10 uM measured upto 72 hrs by Western blot analysis; format: functional, cell-based
BT-474 [7] = test: Downregulation of AKT expression in human Trastuzumab-sensitive BT474 cell at 10 uM measured upto 72 hrs by Western blot analysis; format: functional, cell-based
[8] = target: Heat shock protein HSP 90-alpha (Homo sapiens) (UniProt P07900); test: Inhibition of HSP90alpha in human Trastuzumab-sensitive BT474 cells assessed as reduction in HER2 phosphorylation level at Tyr1221/1222 residues at 10 uM measured upto 72 hrs by Western blot analysis; format: cell-based
[9] = target: Heat shock protein HSP 90-alpha (Homo sapiens) (UniProt P07900); test: Inhibition of HSP90alpha in human Trastuzumab-sensitive BT474 cell assessed as reduction in Akt phosphorylation level at Ser473 residues at 10 uM measured upto 72 hrs by Western blot analysis; format: cell-based
BT-474 [10] = test: Downregulation of cyclinD1 level in human Trastuzumab-sensitive BT474 cell at 10 uM measured upto 72 hrs by Western blot analysis; format: functional, cell-based
BT-474 [11] = test: Downregulation of survivin protein level in human Trastuzumab-sensitive BT474 cell at 10 uM measured upto 72 hrs by Western blot analysis; format: functional, cell-based
[12] = test system: Trastuzumab-resistant JIMT-1; test: Downregulation of HER2 expression in human Trastuzumab-resistant JIMT-1 cell at 10 uM measured upto 72 hrs by Western blot analysis; format: functional, cell-based
[13] = test system: Trastuzumab-resistant JIMT-1; test: Downregulation of AKT expression in human Trastuzumab-resistant JIMT-1 cell at 10 uM measured upto 72 hrs by Western blot analysis; format: functional, cell-based
[14] = target: Heat shock protein HSP 90-alpha (Homo sapiens) (UniProt P07900); test: Inhibition of HSP90alpha in human Trastuzumab-resistant JIMT-1 cell assessed as reduction in HER2 phosphorylation level at Tyr1221/1222 residues at 10 uM measured upto 72 hrs by Western blot analysis; format: cell-based
[15] = target: Heat shock protein HSP 90-alpha (Homo sapiens) (UniProt P07900); test: Inhibition of HSP90alpha in human Trastuzumab-resistant JIMT-1 cell assessed as reduction in Akt phosphorylation level at Ser473 residues at 10 uM measured upto 72 hrs by Western blot analysis; format: cell-based
[16] = test system: Trastuzumab-resistant JIMT-1; test: Downregulation of cyclinD1 level in human Trastuzumab-resistant JIMT-1 cell at 10 uM measured upto 72 hrs by Western blot analysis; format: functional, cell-based
[17] = test system: Trastuzumab-resistant JIMT-1; test: Downregulation of survivin protein level in human Trastuzumab-resistant JIMT-1 cell at 10 uM measured upto 72 hrs by Western blot analysis; format: functional, cell-based
[18] = target: Heat shock protein HSP 90-alpha (Homo sapiens) (UniProt P07900); test: Inhibition of PPID binding to C-terminal Hsp90-alpha CTD (unknown origin) at 500 uM by Alpha screen microplate reader analysis
Homo sapiens = organism: Homo sapiens; test: Inhibition of N-terminal HSP90 (unknown origin) at 10 uM by AlphaLISA assay
[19] = test system: Trastuzumab-resistant JIMT-1; test: Antitumor activity against human Trastuzumab-resistant JIMT-1 cell xenografted in female BALB/c nude mouse assessed as inhibition of tumor burden at 20 mg/kg, ip administered every other day for 40 days; format: functional, organism-based; details: time 40.0 day
[20] = test system: Trastuzumab-resistant JIMT-1; test: Antitumor activity against human Trastuzumab-resistant JIMT-1 cell xenografted in female BALB/c nude mouse assessed as inhibition of tumor volume at 20 mg/kg, ip administered every other day for 40 days; format: functional, organism-based; details: time 40.0 day
[21] = test system: Trastuzumab-resistant JIMT-1; test: Antitumor activity against human Trastuzumab-resistant JIMT-1 cell xenografted in female BALB/c nude mouse assessed as inhibition of tumor weight at 20 mg/kg, ip administered every other day for 40 days; format: functional, organism-based; details: time 40.0 day
[22] = Toxicity in female BALB/c nude mouse assessed as effect on body weight at 20 mg/kg, ip administered every other day for 40 days; format: organism-based; details: in vivo, 960 h, time 40 day
[23] = Metabolic stability in human liver microsomes assessed as parent compound remaining measured after 30 mins; format: ADME, Microsome; details: read-out: Stability
[24] = Metabolic stability in rat liver microsomes assessed as parent compound remaining measured after 30 mins; format: ADME, Microsome; details: read-out: Stability
[25] = Stability in human plasma assessed as compound remaining incubated for 120 mins; format: ADME, cell-free; details: read-out: Stability
[26] = Stability in rat plasma assessed as compound remaining incubated for 120 mins; format: ADME, cell-free; details: read-out: Stability
[27] = AUC/dose in Sprague-Dawley rat at 5 mg/kg, iv; format: ADME, organism-based; details: in vivo
[28] = C0 in Sprague-Dawley rat at 5 mg/kg, iv; format: ADME, organism-based; details: in vivo
[29] = Half life in Sprague-Dawley rat at 5 mg/kg, iv; format: ADME, organism-based; details: in vivo
[30] = MRTinfinity in Sprague-Dawley rat at 5 mg/kg, iv; format: ADME, organism-based; details: in vivo
[31] = Clearance in Sprague-Dawley rat at 5 mg/kg, iv; format: ADME, organism-based; details: in vivo
[32] = Volume of distribution in Sprague-Dawley rat at 5 mg/kg, iv; format: ADME, organism-based; details: in vivo
[33] = AUClast in Sprague-Dawley rat at 10 mg/kg, po; format: ADME, organism-based; details: in vivo
[34] = AUCinfinity in Sprague-Dawley rat at 10 mg/kg, po; format: ADME, organism-based; details: in vivo
[35] = AUC/dose in Sprague-Dawley rat at 10 mg/kg, po; format: ADME, organism-based; details: in vivo
[36] = Cmax in Sprague-Dawley rat at 10 mg/kg, po; format: ADME, organism-based; details: in vivo
[37] = Tmax in Sprague-Dawley rat at 10 mg/kg, po; format: ADME, organism-based; details: in vivo
[38] = Half life in Sprague-Dawley rat at 10 mg/kg, po; format: ADME, organism-based; details: in vivo
[39] = MRTinfinity in Sprague-Dawley rat at 10 mg/kg, po; format: ADME, organism-based; details: in vivo
[40] = Clearance in Sprague-Dawley rat at 10 mg/kg, po; format: ADME, organism-based; details: in vivo
[41] = Volume of distribution in Sprague-Dawley rat at 10 mg/kg, po; format: ADME, organism-based; details: in vivo
[42] = Oral bioavailability in Sprague-Dawley rat at 10 mg/kg; format: ADME, organism-based; details: in vivo
hERG (KCNH2) [43] = target: T1, hERG (KCNH2) (Homo sapiens, UniProt Q12809); test: Inhibition of human ERG at 10 uM by fluorescence polarization assay relative to control
hERG (KCNH2) [44] = target: T1, hERG (KCNH2); test: Inhibition of human ERG expressed in CHO cells at 3 uM by whole-cell patch clamp assay relative to control; format: toxicity, cell-based; details: CHO cells expressing hERG
hERG (KCNH2) [45] = target: T1, hERG (KCNH2); test: Inhibition of human ERG expressed in CHO cells at 30 uM by whole-cell patch clamp assay relative to control; format: toxicity, cell-based; details: CHO cells expressing hERG
CYP1A2 = target: T2, CYP1A2 (Homo sapiens, UniProt P05177); test: Inhibition of CYP1A2 (unknown origin) at 10 uM relative to control; format: ADME
T2 sequence (P05177 whole entry): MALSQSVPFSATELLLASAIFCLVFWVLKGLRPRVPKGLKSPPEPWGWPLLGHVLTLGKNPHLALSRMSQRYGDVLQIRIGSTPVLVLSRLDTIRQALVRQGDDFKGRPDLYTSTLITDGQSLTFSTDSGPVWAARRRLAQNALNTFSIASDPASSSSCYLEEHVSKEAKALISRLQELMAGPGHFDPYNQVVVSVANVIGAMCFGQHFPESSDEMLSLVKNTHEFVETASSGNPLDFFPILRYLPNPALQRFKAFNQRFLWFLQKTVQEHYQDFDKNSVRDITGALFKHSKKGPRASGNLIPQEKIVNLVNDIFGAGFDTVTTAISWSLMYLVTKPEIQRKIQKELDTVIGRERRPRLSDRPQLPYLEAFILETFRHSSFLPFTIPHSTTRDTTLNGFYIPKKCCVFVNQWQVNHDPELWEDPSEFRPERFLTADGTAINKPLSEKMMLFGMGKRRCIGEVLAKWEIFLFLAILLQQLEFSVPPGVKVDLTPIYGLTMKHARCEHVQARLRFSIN

CYP2C9 = CYP2C9 (Homo sapiens, UniProt P11712); test: Inhibition of CYP2C9 (unknown origin) at 10 uM relative to control; format: ADME
CYP3A4 = CYP3A4 (Homo sapiens, UniProt P08684); test: Inhibition of CYP3A4 (unknown origin) at 10 uM relative to control; format: ADME
CYP2C19 = CYP2C19 (Homo sapiens, UniProt P33261); test: Inhibition of CYP2C19 (unknown origin) at 10 uM relative to control; format: ADME
CYP2D6 = CYP2D6 (Homo sapiens, UniProt P10635); test: Inhibition of CYP2D6 (unknown origin) at 10 uM relative to control; format: ADME
[46] = Genotoxicity in Salmonella typhimurium TA98 in presence of rat liver S9 fraction by Ames test; format: toxicity, subcellular; details: salmonella enterica subsp. enterica serovar typhimurium
[47] = Genotoxicity in Salmonella typhimurium TA98 in absence of rat liver S9 fraction by Ames test; format: toxicity; details: salmonella enterica subsp. enterica serovar typhimurium
[48] = Genotoxicity in Salmonella typhimurium TA100 in presence of rat liver S9 fraction by Ames test; format: toxicity, subcellular; details: salmonella enterica subsp. enterica serovar typhimurium
[49] = Genotoxicity in Salmonella typhimurium TA100 in absence of rat liver S9 fraction by Ames test; format: toxicity; details: salmonella enterica subsp. enterica serovar typhimurium

T1 sequence (Q12809 whole entry): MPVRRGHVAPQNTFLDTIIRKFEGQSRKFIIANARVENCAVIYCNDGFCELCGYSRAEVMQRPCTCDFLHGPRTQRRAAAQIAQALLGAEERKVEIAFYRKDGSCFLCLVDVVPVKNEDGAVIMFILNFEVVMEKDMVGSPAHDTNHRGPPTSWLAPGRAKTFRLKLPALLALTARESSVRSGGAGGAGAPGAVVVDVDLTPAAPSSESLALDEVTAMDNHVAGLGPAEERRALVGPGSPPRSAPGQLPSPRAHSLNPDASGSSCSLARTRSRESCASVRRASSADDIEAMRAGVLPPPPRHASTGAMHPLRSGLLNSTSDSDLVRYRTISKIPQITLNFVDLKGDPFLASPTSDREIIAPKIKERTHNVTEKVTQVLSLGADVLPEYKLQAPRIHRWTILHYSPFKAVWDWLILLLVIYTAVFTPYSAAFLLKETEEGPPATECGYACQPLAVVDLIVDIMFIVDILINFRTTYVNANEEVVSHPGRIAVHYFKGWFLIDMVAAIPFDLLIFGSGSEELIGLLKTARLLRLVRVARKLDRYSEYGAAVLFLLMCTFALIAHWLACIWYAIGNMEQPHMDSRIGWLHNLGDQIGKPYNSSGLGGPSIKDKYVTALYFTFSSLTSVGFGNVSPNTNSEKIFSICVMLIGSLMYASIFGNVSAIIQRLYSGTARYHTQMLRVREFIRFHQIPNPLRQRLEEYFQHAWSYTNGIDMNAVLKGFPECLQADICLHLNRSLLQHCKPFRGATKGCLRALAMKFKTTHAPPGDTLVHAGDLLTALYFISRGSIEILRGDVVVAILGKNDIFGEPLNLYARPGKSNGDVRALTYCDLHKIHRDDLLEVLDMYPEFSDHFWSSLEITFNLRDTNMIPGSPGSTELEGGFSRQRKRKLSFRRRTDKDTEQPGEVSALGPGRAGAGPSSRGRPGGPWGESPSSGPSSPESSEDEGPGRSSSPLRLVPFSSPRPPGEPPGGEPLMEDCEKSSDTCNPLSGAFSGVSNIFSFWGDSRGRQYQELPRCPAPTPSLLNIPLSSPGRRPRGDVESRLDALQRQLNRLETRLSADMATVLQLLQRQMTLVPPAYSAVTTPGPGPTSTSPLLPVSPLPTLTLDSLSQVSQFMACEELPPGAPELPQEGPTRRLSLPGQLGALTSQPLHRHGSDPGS
Sequence of CYP2C9 (P11712 whole entry): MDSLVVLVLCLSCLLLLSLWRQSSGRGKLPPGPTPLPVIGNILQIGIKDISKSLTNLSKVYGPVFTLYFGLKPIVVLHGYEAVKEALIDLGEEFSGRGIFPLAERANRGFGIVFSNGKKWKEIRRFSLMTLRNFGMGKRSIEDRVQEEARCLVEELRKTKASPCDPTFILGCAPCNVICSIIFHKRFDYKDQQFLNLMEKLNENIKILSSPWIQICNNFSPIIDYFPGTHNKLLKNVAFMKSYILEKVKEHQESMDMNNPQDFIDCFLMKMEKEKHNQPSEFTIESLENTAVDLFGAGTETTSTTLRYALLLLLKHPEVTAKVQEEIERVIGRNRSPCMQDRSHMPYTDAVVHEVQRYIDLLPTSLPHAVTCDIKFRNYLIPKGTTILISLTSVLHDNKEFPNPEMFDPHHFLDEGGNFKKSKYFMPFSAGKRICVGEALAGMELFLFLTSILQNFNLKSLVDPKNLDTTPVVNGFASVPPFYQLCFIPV
Sequence of CYP2D6 (P10635 whole entry): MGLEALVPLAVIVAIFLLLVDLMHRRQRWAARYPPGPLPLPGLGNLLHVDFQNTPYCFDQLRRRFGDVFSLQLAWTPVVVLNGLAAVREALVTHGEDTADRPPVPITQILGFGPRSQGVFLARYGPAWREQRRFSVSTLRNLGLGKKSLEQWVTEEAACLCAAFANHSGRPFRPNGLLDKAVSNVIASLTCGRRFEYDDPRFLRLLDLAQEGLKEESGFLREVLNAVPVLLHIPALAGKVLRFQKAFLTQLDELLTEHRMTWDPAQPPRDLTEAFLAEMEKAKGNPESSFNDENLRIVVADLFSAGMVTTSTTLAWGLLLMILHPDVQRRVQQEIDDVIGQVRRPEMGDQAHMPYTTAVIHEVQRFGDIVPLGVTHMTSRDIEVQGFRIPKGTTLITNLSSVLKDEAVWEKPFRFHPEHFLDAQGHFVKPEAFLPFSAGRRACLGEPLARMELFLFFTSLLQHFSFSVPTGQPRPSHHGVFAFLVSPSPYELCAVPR
Sequence of CYP2C19 (P33261 whole entry): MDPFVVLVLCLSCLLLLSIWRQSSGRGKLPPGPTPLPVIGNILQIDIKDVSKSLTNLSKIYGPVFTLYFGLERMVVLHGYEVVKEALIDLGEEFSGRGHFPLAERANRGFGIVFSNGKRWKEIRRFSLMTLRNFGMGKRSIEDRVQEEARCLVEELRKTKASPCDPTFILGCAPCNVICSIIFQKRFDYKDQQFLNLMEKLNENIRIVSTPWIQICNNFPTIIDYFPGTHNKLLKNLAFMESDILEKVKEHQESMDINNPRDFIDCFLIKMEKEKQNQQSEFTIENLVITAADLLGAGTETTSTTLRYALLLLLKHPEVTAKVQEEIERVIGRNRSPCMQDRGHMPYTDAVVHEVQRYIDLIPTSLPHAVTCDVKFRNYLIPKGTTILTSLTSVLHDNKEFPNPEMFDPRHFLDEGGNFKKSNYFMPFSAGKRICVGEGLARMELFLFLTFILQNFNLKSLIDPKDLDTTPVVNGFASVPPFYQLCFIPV
Sequence of CYP3A4 (P08684 whole entry): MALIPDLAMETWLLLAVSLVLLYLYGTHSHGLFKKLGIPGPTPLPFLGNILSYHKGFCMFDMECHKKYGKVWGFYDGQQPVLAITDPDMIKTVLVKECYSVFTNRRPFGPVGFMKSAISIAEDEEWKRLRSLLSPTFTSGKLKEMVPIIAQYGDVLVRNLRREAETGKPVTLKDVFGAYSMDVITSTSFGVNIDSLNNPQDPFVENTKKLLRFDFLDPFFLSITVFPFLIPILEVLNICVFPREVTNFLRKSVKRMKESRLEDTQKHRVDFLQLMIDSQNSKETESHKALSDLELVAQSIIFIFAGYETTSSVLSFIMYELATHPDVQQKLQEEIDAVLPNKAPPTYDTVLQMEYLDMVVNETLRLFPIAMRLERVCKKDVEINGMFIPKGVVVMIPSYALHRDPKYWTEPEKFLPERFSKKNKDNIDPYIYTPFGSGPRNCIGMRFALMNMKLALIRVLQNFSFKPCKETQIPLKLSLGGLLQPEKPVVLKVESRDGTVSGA

AUC(0-t) [2]: 771 ng·h/mL
AUC [3]: 1059 ng·h/mL
inhibition [8]: Active
inhibition [9]: Active
inhibition [14]: Active
inhibition [15]: Active
inhibition [18]: Active
inhibition (Homo sapiens): inactive
remaining at 0.5 h [23]: 94.5%
remaining at 0.5 h [24]: 62.8%
remaining at 2 h [25]: 100%
remaining at 2 h [26]: 98.3%
AUC/dose [27]: 154.3 ng·h/mL
C0 [28]: 342 ng/mL
half-life [29]: 4.4 h
MRT inf [30]: 5.4 h
clearance [31]: 84.5 mL/min
Vd [32]: 31.2 L/kg
AUC(0-t) [33]: 1030 ng·h/mL
AUC [34]: 2957 ng·h/mL
AUC/dose [35]: 103.2 ng·h/mL
Cmax [36]: 159 ng/mL
Tmax [37]: 4 h
half-life [38]: 9.6 h
MRT inf [39]: 15 h
CL/F [40]: 47.3 mL/min
Vd [41]: 3.6 L/kg
F [42]: 66.9%
inhibition at 10 µM (CYP1A2): > 100%
inhibition at 10 µM (CYP2C9): 78.2%
inhibition at 10 µM (CYP3A4): 73%
inhibition at 10 µM (CYP2C19): 56.3%
inhibition at 10 µM (CYP2D6): 55.3%
Structure (SMILES): COc1c(C(=O)Nc2ccc3c(C)nn(CCC4CCN(C)CC4)c3c2)ccc2c1C=CC(C)(C)O2
inhibition at 10 µM (BT-474 [1]): < 20%
inhibition at 10 µM (JIMT-1): < 20%
Activity (HEK293): Toxic
IC50 [4]: 6.86 µM
IC50 [5]: 4.42 µM
Activity (BT-474 [6]): Active
Activity (BT-474 [7]): Active
Activity (BT-474 [10]): Active
Activity (BT-474 [11]): Active
Activity [12]: Active
Activity [13]: Active
Activity [16]: Active
Activity [17]: Active
Activity [19]: Active
Activity [20]: Active
Activity [21]: Active
Activity [22]: Non-Toxic
inhibition at 10 µM (hERG (KCNH2) [43]): 57%
inhibition at 3 µM (hERG (KCNH2) [44]): 30.4%
inhibition at 30 µM (hERG (KCNH2) [45]): 87.1%
Activity [46]: Non-Toxic
Activity [47]: Non-Toxic
Activity [48]: Non-Toxic
Activity [49]: Non-Toxic
